Source: patent US20110082130A1 (LIGAND PHARMACEUTICALS, INC., priority 2006, published 2011)

The compounds below were run against T1, chimeric human H3 receptor (Homo sapiens, UniProt Q9Y5N1) (assay: Chimeric human H3 receptor GTP binding assay (agonist-stimulated GTP-gamma35S binding, Example 7)). Settings: Table I; P2 membranes of Sf9 cells, 1 μM histamine as agonist, Ki from IC50 by Cheng-Prusoff.
T1 construct: made in house; host or cells: Sf9 insect cells (baculovirus); P2 membrane preparation
T1 sequence (Q9Y5N1 with tags, fused parts or gaps): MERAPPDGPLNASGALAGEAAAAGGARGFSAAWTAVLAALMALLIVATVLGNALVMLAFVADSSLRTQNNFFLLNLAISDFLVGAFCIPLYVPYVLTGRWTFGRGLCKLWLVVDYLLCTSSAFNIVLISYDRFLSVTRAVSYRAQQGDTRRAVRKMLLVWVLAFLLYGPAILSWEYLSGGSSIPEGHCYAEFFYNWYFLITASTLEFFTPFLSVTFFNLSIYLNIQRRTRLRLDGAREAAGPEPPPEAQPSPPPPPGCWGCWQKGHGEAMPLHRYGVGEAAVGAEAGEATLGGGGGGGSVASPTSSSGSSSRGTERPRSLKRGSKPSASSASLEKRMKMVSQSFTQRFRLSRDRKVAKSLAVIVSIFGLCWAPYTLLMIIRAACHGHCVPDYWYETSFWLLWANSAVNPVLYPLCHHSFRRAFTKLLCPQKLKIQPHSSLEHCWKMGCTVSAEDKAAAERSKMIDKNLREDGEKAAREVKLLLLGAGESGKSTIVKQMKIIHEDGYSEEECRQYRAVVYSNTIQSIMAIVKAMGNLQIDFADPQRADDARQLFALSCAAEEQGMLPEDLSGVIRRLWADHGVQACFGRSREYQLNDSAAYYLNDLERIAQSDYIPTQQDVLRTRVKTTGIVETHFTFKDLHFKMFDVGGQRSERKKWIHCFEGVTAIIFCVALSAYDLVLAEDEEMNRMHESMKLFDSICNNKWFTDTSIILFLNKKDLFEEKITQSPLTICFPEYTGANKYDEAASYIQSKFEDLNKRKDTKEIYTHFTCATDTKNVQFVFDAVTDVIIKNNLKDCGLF
Format: biochemical
Text: This Example illustrates a representative assay for evaluating agonist-stimulated GTP-gamma^35S binding (“GTP binding”) activity. […] This agonist-stimulated GTP binding activity can also be used to detect partial agonism mediated by antagonist compounds. A compound analyzed in this assay is referred to herein as a “test compound.”
Four independent baculoviral stocks (one directing the expression of the chimeric human H3 receptor and three directing the expression of each of the three subunits of a heterotrimeric G-protein) are used to infect a culture of Sf9 cells as described above. P2 membranes are prepared as described above, and agonist-stimulated GTP binding on the P2 membranes is assessed using histamine (Sigma Chemical Co., St. Louis, Mo.) as agonist in order to ascertain that the receptor/G-protein-alpha-beta-gamma combination(s) yield a functional response as measured by GTP binding. P2 membranes are resuspended by Dounce homogenization (tight pestle) in GTP binding assay buffer (50 mM Tris pH 7.4, 120 mM NaCl, 5 mM MgCl2, 2 mM EGTA, 1 mg/ml BSA, 0.2 mg/ml bacitracin, 0.02 mg/ml aprotinin, 0.01 mg/ml saponin, 10 μM GDP) and added to assay tubes at a concentration of 35 μg protein/reaction tube. After adding increasing doses of histamine at concentrations ranging from 10^−12 M to 10^−5 M, reactions are initiated by the addition of […] GTP-gamma^35S (PERKIN ELMER; Boston, Mass.) with a final assay volume of 0.20 ml. In competition experiments, non-radiolabeled test compounds are added to separate reactions at concentrations ranging from 10^−10 M to 10^−6 M along with 1 μM histamine to yield a final volume of 0.20 ml.
Neutral antagonists are antagonists that are substantially free of inherent agonist activity, and include those test compounds that reduce the histamine-stimulated GTP binding activity towards, but not below, baseline levels. In contrast, in the absence of added histamine, inverse agonists reduce the GTP binding activity of the receptor-containing membranes below baseline.
After a 60-min incubation at room temperature, reactions are terminated by vacuum filtration over WHATMAN GF/C filters (pre-soaked in wash buffer, 0.1% BSA) followed by washing with ice-cold wash buffer (50 mM Tris pH 7.4, 120 mM NaCl). The amount of receptor-bound (and thereby membrane-bound) GTP-gamma^35S is determined by measuring the filter-bound radioactivity, preferably by liquid scintillation spectrometry of the washed filters. Non-specific binding is determined in parallel assays including 10 μM unlabeled GTP-gammaS and typically represents less than 5 percent of total binding. Data is expressed as percent above basal (baseline). The results of GTP binding experiments are analyzed using SIGMAPLOT software (SPSS Inc., Chicago, Ill.). IC50 values are calculated by non-linear regression analysis of dose-response curves using Kaleidograph (Synergy Software, Reading, Pa.).
Alternatively the data is analyzed as follows. First, the average bound radioactivity from negative control wells (no agonist) is subtracted from the bound radioactivity detected for each of the other experimental wells. Second, average bound radioactivity is calculated for the positive control wells (agonist wells). Then, percent inhibition for each compound tested is calculated using the equation:
Calculated IC50 values are converted to K1 values by the Cheng-Prusoff correction (Cheng and Prusoff (1973) Biochem. Pharmacol. 22(23):3099-3108). Accordingly, the following equation: Ki=IC50/(1+[L]/EC50) is used, where [L] is the histamine concentration in the GTP binding assay, and EC50 is the concentration of histamine producing a 50% response, as determined by a dose-response analysis using concentrations of histamine ranging from 10^−10 M to 10^−6M. […]
In the case of `COc1cc2c(cc1OC)CN(CC(=O)N1CCN(C(C)C)CC1)CC2` [Compound 49, 2-[2-(4-isopropylpiperazin-1-yl)-2-oxoethyl]-6,7-dimethoxy-1,2,3,4-tetrahydroisoquinoline], the Ki is reported as < 1000 nM. For `CC(C)N1CCN(C(=O)CN2CCc3ccccc3C2c2ccccc2)CC1` (stereo not drawn) [Compound 52, 2-[2-(4-isopropylpiperazin-1-yl)-2-oxoethyl]-1-phenyl-1,2,3,4-tetrahydroisoquinoline], the Ki was < 1000 nM. With `COc1cc2c(cc1OC)CN(CC(=O)N1CCN(C3CCC3)CC1)CC2` [Compound 48, 2-[2-(4-cyclobutylpiperazin-1-yl)-2-oxoethyl]-6,7-dimethoxy-1,2,3,4-tetrahydroisoquinoline] the Ki was < 1000 nM.

Same assay, conditions: Table II "Ki", symbol *; assay of Example 7
With `CC1CCCC1N1CCN(C(=O)CN2CCc3cc(-c4cncnc4)ccc3C2)C[C@@H]1C` (stereo partly drawn) [Compound 614, 2-{2-[(3S)-3-methyl-4-(2-methylcyclopentyl)piperazin-1-yl]-2-oxoethyl}-6-pyrimidin-5-yl-1,2,3,4-tetrahydroisoquinoline] the Ki was < 1000 nM. For `COc1ccc(-c2ccc3c(c2)CCN(CC(=O)N2CCN(C4CCCC4)CC2)C3)cc1C` [Compound 541, 2-[2-(4-cyclopentylpiperazin-1-yl)-2-oxoethyl]-6-(4-methoxy-3-methylphenyl)-1,2,3,4-tetrahydroisoquinoline], the Ki was < 1000 nM. For `C[C@@H]1CN(C(=O)CN2CCc3cc(-c4cncnc4)ccc3C2)CCN1C1CCCCC1` [Compound 617, 2-{2-[(3R)-4-cyclohexyl-3-methylpiperazin-1-yl]-2-oxoethyl}-6-pyrimidin-5-yl-1,2,3,4-tetrahydroisoquinoline], the Ki was < 1000 nM. `CCN(CC)c1ccc(-c2ccc3c(c2)CCN(CC(=O)N2CCN(C4CCC4)CC2)C3)cc1` [Compound 625, 4-{2-[2-(4-cyclobutylpiperazin-1-yl)-2-oxoethyl]-1,2,3,4-tetrahydroisoquinolin-6-yl}-N,N-diethylaniline] was tested, and the Ki was < 1000 nM. With `O=C(CN1CCc2cc(-c3cnc4ccccc4c3)ccc2C1)N1CCN(C2CCC2)CC1` [Compound 638, 3-{2-[2-(4-cyclobutylpiperazin-1-yl)-2-oxoethyl]-1,2,3,4-tetrahydroisoquinolin-6-yl}quinoline] the Ki was < 1000 nM.

Same assay, conditions: Table II; "*" = Ki in assay of Example 7 less than 1 micromolar
In the case of `CC(=O)c1ccc2c(c1)CCN(CC(=O)N1CCN(C(C)C)CC1)C2` [Compound 141, 1-{2-[2-(4-isopropylpiperazin-1-yl)-2-oxoethyl]-1,2,3,4-tetrahydroisoquinolin-6-yl}ethanone], the Ki is reported as < 1000 nM. In the case of `CC1CCC[C@H]2CN(C(=O)CN3CCc4nc(N5CCC(F)(F)CC5)ccc4C3)CCN12` (stereo in doubt) [Compound 180, 2-(4,4-difluoropiperidin-1-yl)-6-[2-(6-methyloctahydro-2H-pyrido[1,2-a]pyrazin-2-yl)-2-oxoethyl]-5,6,7,8-tetrahydro-1,6-naphthyridine], the Ki is reported as < 1000 nM. `CSc1nc2c(o1)CN(CC(=O)N1CCN(C3CCC3)CC1)CC2` [Compound 107, 5-[2-(4-cyclobutylpiperazin-1-yl)-2-oxoethyl]-2-(methylthio)-4,5,6,7-tetrahydro[1.3]oxazolo [5,4-c]pyridine] was tested, and the Ki was < 1000 nM. In the case of `O=C(CN1CCc2cc(-c3cncs3)ccc2C1)N1CCN(C2CCC2)CC1` [Compound 132, 2-[2-(4-cyclobutylpiperazin-1-yl)-2-oxoethyl]-6-(1,3-thiazol-5-yl)-1,2,3,4-tetrahydroisoquinoline], the Ki is reported as < 1000 nM. `O=C(CN1CCc2cc(N3CCCC3)nnc2C1)N1CCN(C2CCC2)CC1` [Compound 221, 7-[2-(4-cyclobutylpiperazin-1-yl)-2-oxoethyl]-3-pyrrolidin-1-yl-5,6,7,8-tetrahydropyrido[3,4-c]pyridazine] was tested, and the Ki was < 1000 nM. `O=C(CN1CCc2cc(-c3ccccn3)ccc2C1)N1CCN(C2CCC2)CC1` [Compound 130, 2-[2-(4-cyclobutylpiperazin-1-yl)-2-oxoethyl]-6-pyridin-2-yl-1,2,3,4-tetrahydroisoquinoline] was tested, and the Ki was < 1000 nM. With `Cc1cnn(-c2ccc3c(c2)CCN(CC(=O)N2CCN(C4CCC4)CC2)C3)c1` [Compound 217, 2-[2-(4-cyclobutylpiperazin-1-yl)-2-oxoethyl]-6-(4-methyl-1H-pyrazol-1-yl)-1,2,3,4-tetrahydroisoquinoline] the Ki was < 1000 nM. With `N#Cc1cnn(-c2ccc3c(c2)CCN(CC(=O)N2CCN(C4CCC4)CC2)C3)c1` [Compound 244, 1-{2-[2-(4-cyclobutylpiperazin-1-yl)-2-oxoethyl]-1,2,3,4-tetrahydroisoquinolin-6-yl}-1H-pyrazole-4-carbonitrile] the Ki was < 1000 nM. With `O=C(CN1CCc2nn(-c3ccc(C(F)(F)F)cc3)cc2C1)N1CCN(C2CCC2)CC1` [Compound 237, 5-[2-(4-cyclobutylpiperazin-1-yl)-2-oxoethyl]-2-[4-(trifluoromethyl)phenyl]-4,5,6,7-tetrahydro-2H-pyrazolo[4,3-c]pyridine] the Ki was < 1000 nM. For `COc1ncc(-n2ncc3c2CCN(CC(=O)N2CCN(C4CCC4)CC2)C3)cn1` [Compound 257, 5-[2-(4-cyclobutylpiperazin-1-yl)-2-oxoethyl]-1-(2-methoxypyrimidin-5-yl)-4,5,6,7-tetrahydro-1H-pyrazolo[4,3-c]pyridine], the Ki was < 1000 nM. For `O=C(CN1CCc2cc(O)ccc2C1)N1CCN(C2CCC2)CC1` [Compound 195, 2-[2-(4-cyclobutylpiperazin-1-yl)-2-oxoethyl]-1,2,3,4-tetrahydroisoquinolin-6-ol], the Ki was < 1000 nM. In the case of `O=C(CN1CCc2nc(N3CCCC3)ccc2C1)N1CCN(C2CCC2)CC1` [Compound 176, 6-[2-(4-cyclobutylpiperazin-1-yl)-2-oxoethyl]-2-pyrrolidin-1-yl-5,6,7,8-tetrahydro-1,6-naphthyridine], the Ki is reported as < 1000 nM. With `Cn1cc(-c2ccc3c(c2)CCN(CC(=O)N2CCN(C4CCC4)CC2)C3)cnc1=O` [Compound 266, 5-{2-[2-(4-cyclobutylpiperazin-1-yl)-2-oxoethyl]-1,2,3,4-tetrahydroisoquinolin-6-yl}-1-methylpyrimidin-2(1H)-one] the Ki was < 1000 nM. In the case of `CCOC(=O)c1cnc2c(c1)CCN(CC(=O)N1CCN(C3CCC3)C(C)C1)C2` (stereo not drawn) [Compound 117, ethyl 7-[2-(4-cyclobutyl-3-methylpiperazin-1-yl)-2-oxoethyl]-5,6,7,8-tetrahydro-1,7-naphthyridine-3-carboxylate], the Ki is reported as < 1000 nM. With `O=C(CN1CCc2nc(-c3cccnn3)ccc2C1)N1CCN(C2CCC2)CC1` [Compound 172, 6-[2-(4-cyclobutylpiperazin-1-yl)-2-oxoethyl]-2-pyridazin-3-yl-5,6,7,8-tetrahydro-1,6-naphthyridine] the Ki was < 1000 nM.

Same assay, conditions: assay of Example 7; "*" in Ki of Table II
`O=C(CN1CCc2nc(-c3ccc(F)cc3F)sc2C1)N1CCN(C2CCC2)CC1` [Compound 348, 5-[2-(4-cyclobutylpiperazin-1-yl)-2-oxoethyl]-2-(2,4-difluorophenyl)-4,5,6,7-tetrahydro[1,3]thiazolo [5,4-c]pyridine] was tested, and the Ki was < 1000 nM. With `CC(C)N1CCN(C(=O)CN2CCc3cc(-c4cncnc4)ccc3C2)CC1` [Compound 387, 2-[2-(4-isopropylpiperazin-1-yl)-2-oxoethyl]-6-pyrimidin-5-yl-1,2,3,4-tetrahydroisoquinoline] the Ki was < 1000 nM. `O=C(CN1CCc2nc(-c3cccc(Cl)c3)sc2C1)N1CCN(C2CCC2)CC1` [Compound 295, 2-(3-chlorophenyl)-5-[2-(4-cyclobutylpiperazin-1-yl)-2-oxoethyl]-4,5,6,7-tetrahydro[1,3]thiazolo [5,4-c]pyridine] was tested, and the Ki was < 1000 nM. With `O=C(CN1CCc2nc(-c3ccc(Cl)cc3F)sc2C1)N1CCN(C2CCC2)CC1` [Compound 351, 2-(4-chloro-2-fluorophenyl)-5-[2-(4-cyclobutylpiperazin-1-yl)-2-oxoethyl]-4,5,6,7-tetrahydro[1,3]thiazolo [5,4-c]pyridine] the Ki was < 1000 nM.
